# “And” between values parts separate entries of the source, which are not always exact repeats. Equal values may be shown once. Read-outs that look alike come from different tables or passages of the source.
# Legend:
# [1] = biological target: Myeloid Cell Leukemia 1 (Mcl-1) (Homo sapiens, UniProt Q07820); test: biochemical; format: binding; conditions: HTRF Ki (nM)
# MOLP8 cell line = test: MOLP8 CellEvent Caspase-3/7 Green live-cell IncuCyte apoptosis assay; format: cell-based, human; conditions: MOLP8 cells, averaged values
# Description: (§1) MCL-1 is a regulator of apoptosis and is highly over-expressed in tumor cells that escape cell death. The assay evaluates the cellular potency of small-molecule compounds targeting regulators of the apoptosis pathway, primarily MCL-1, Bfl-1, Bcl-2, and other proteins of the Bcl-2 family. Protein-protein inhibitors disrupting the interaction of anti-apoptotic regulators with BH3-domain proteins initiate apoptosis.
# Activation of the apoptotic pathway was measured using the CellEvent™ Caspase-3/7 Green ReadyProbes™ Reagent (Thermo Fisher C10423, C10723). This assay produces a green fluorescent stain in cells that enter the apoptosis pathway. CellEvent® Caspase-3/7 Green reagent is a four amino acid peptide (DEVD) conjugated to a nucleic acid-binding dye that is non-fluorescent when not bound to DNA. The CellEvent® Caspase-3/7 Green reagent is intrinsically non-fluorescent, as the DEVD peptide inhibits binding of the dye to DNA. Upon activation of caspase-3/7 in apoptotic cells, the DEVD peptide is cleaved and the free dye can bind DNA, generating a bright green fluorescence. The activation of Caspase-3 and Caspase-7 is downstream of inhibition of MCL-1 or other apoptosis inhibiting proteins in cell lines that are dependent on them.
# The live-cell readout on the IncuCyte permits tracking over time of the Caspase activation. […] The IncuCyte readout also allows one to normalize for cell number, as the suspension cells are hard to distribute evenly.
# Signals were measured every 2 h for a duration of 22 h. The ratio of the Caspase mask to the Confluence mask, per image, as raw data, was calculated and the kinetic trace for every well was exported to Genedata Screener for analysis.
# In Genedata Screener values for 6 h, 12 h, and 22 h from the kinetic traces were extracted. The values were normalized against negative controls (untreated cells). A standard dose-response analysis was performed on the normalized data.
# The following data was reported at each of the following three aforementioned time points: (a) The dose-response curve, (b) The qAC50 and qAC50 Mode, and (c) Max Activity.
# Cells were maintained in culture medium containing 10% Heat Inactivated (HI) FBS, 2 mM L-Glutamine and 50 μg/mL Gentamycin phenol red free RPMI-1640. Cells were split at 0.4 million/mL twice a week.
# On Day 1, plates containing individual wells with test compounds at 10 mM concentration, 150 nL per well. The final concentrations range from […] compound (and no compound control) and compounds were thawed at room temperature for 1 hour. 25 μl of prewarmed medium was added into each well by multidrop (column 1, 3-22, 24), followed by addition of DMSO control (0.6% DMSO) in column 2. The plate was sealed using Breathe-Easy® sealing membrane and shaken for 30 min at room temperature to dissolve the test compound(s) in medium. The plate was then kept in the incubator for 1 hour at 37° C., 5% CO2.
# MOLP8 cells in medium at […] (20000/50 μl final in assay) were prepared with CellEvent™ Caspase-3/7 Green Detection Reagent at 4 μM (2 μM final in assay). Once prepared, the cells were added to the test compound plate in an amount of 20000 and the plate was immediately placed in the IncuCyte and imaging started using following settings: 10× objective, 2 s exposure time in green channel, interval of 2 h, acquisition stopped after 22 h.
# For analysis in IncuCyte, a Basic Analysis protocol was defined to calculate the “confluence” and “caspase” areas from the “Phase” and “green” images, respectively, as follows: (a) Confluence: Segmentation Adjustment 1, Hole Fill 0, Adjust Size −2, No filters (b) Caspase: Top-Hat segmentation, Radius 10, Threshold 0.3 GCU, Edge Split On with sensitivity 0, Hole Fill 0, Adjust Size 1, and filter on a minimum Area of 20 μm^2. The analyzer is trained on a sufficient number of positive and negative control wells, as well as compound treated wells, verifying that the “confluence” layer detects both live and dead (condensed) cells. […]
# [2] = tested on: MOLP-8 human multiple myeloma cell line; test: MOLP8 Caspase-Glo 3/7 luminescent assay; format: cell-based; conditions: averaged over all runs on all batches
# Description: as §1
# The Caspase-Glo® 3/7 Assay is a luminescent assay that measures caspase-3 and -7 activities in purified enzyme preparations or cultures of adherent or suspension cells. The assay provides a proluminescent caspase-3/7 substrate, which contains the tetrapeptide sequence DEVD. This substrate is cleaved to release aminoluciferin, a substrate of luciferase used in the production of light. Addition of the single Caspase-Glo® 3/7 Reagent in an “add-mix-measure” format results in cell lysis, followed by caspase cleavage of the substrate and generation of a “glow-type” luminescent signal.
# This assay uses the MOLP-8 human multiple myeloma cell line, which is sensitive to MCL-1 inhibition.
# Cell cultures were maintained between 0.2 and 2.0×10^6 cells/mL. The cells were harvested by collection in 50 mL conical tubes. The cells were then pelleted at 500 g for 5 mins before removing supernatant and resuspension in fresh pre-warmed culture medium. The cells were counted and diluted as needed.
# The assay reagent was prepared by transferring the buffer solution to the substrate vial and mixing. The solution may be stored for up to 1 week at 4° C. with negligible loss of signal.
# Compounds were delivered in assay-ready plates (Proxiplate) and stored at −20° C.
# Assays always include 1 reference compound plate containing reference compounds. The plates were spotted with 40 nL of compounds (0.5% DMSO final in cells; serial dilution; 30 μM highest conc. 1/3 dilution, 10 doses, duplicates). The compounds were used at room temperature and 4 μL of pre-warmed media was added to all wells except column 2 and 23. The negative control was prepared by adding 1% DMSO in media. The positive control was prepared by adding the appropriate positive control compound in final concentration of 60 μM in media. The plate was prepared by adding 4 μL negative control to column 23, 4 μL positive control to column 2 and 4 μL cell suspension to all wells in the plate. The plate with cells was then incubated at 37° C. for 2 hours. The assay signal reagent is the Caspase-Glo solution described above, and 8 μL was added to all wells. The plates were then sealed and measured after 30 minutes.
# The activity of a test compound was calculated as percent change in apoptosis induction as follows: […]
# [3] = read-out: MOLP8 Caspase 3/7 AC50 at 6 h, 6 h
# [4] = read-out: MOLP8 Caspase 3/7 AC50 at 12 h, 12 h
# [5] = read-out: MOLP8 Caspase 3/7 AC50 at 22 h, 22 h
# [6] = MOLP8 cells, 2 hours incubation, read-out: MOLP8 Caspase-Glo AC50
# [7] = read-out: MOLP8 Caspase-Glo AC50, MOLP8 cells, 2 hours incubation
# Chain of Myeloid Cell Leukemia 1 (Mcl-1) (Q07820 whole entry): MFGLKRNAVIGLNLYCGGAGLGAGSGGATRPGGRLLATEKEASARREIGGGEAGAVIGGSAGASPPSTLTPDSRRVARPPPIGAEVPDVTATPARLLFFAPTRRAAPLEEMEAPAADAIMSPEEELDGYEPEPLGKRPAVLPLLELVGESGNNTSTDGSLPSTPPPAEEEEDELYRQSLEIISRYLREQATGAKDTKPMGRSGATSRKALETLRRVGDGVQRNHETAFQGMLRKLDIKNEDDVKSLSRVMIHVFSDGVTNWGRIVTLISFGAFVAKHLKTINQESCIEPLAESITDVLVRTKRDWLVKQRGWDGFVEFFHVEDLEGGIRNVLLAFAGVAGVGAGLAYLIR
smiles,measurement,setting,value
"Cc1nn(CCN(C)C)c2c1-c1c(Cl)ccc3c(c(C(=O)O)n(C)c13)CCCOc1cc(cc3ccccc13)SCc1cc(nn1C)CN(C)C2 (single isomer, unassigned) [Compound 19]",Ki,[1],0.08 nM and 0.18 nM
same,AC50,MOLP8 cell line; [3],1090 nM
same,AC50,MOLP8 cell line; [4],990 nM
same,AC50,MOLP8 cell line; [5],990 nM
same,AC50,[2]; [6],233 nM
"Cc1c2c(nn1CCN(C)C)CN(C)Cc1cc(n(C)n1)CSc1cc(c3ccccc3c1)OCCCc1c(C(=O)O)n(C)c3c-2c(Cl)ccc13 (single isomer, unassigned) [Compound 20]",Ki,[1],0.06 nM and 0.03 nM
same,AC50,MOLP8 cell line; [3],290 nM
same,AC50,MOLP8 cell line; [4],320 nM
same,AC50,MOLP8 cell line; [5],330 nM
same,AC50,[2]; [6],83 nM
"Cc1c2c(nn1CCN(C)C)CN(C)Cc1cc(n(C)n1)CSc1cc(c3ccccc3c1)OCCCc1c(C(=O)O)n(C)c3c-2c(Cl)ccc13 (single isomer, unassigned) [Compound 21]",Ki,[1],0.49 nM and 0.31 nM
same,AC50,MOLP8 cell line; [3],3160 nM
same,AC50,MOLP8 cell line; [4],2960 nM
same,AC50,MOLP8 cell line; [5],3090 nM
same,AC50,[2]; [6],1600 nM
"Cc1nn(CCN(C)C)c2c1-c1c(Cl)ccc3c(c(C(=O)O)n(C)c13)CCCOc1cc(cc3ccccc13)SCc1cc(nn1C)CN(C)C2 (single isomer, unassigned) [Compound 22]",Ki,[1],3.73 nM and 3.07 nM
same,AC50,MOLP8 cell line; [3],~17400 nM
same,AC50,MOLP8 cell line; [4],~17000 nM
same,AC50,MOLP8 cell line; [5],~17000 nM
same,AC50,[2]; [6],14500 nM
"Cc1[nH]nc2c1-c1c(Cl)ccc3c(c(C(=O)O)n(C)c13)CCCOc1cc(cc3ccccc13)SCc1cc(nn1C)CN(C)C2 (single isomer, unassigned) [Compound 23]",Ki,[1],0.07 nM and 0.03 nM
same,AC50,MOLP8 cell line; [3],450 nM
same,AC50,MOLP8 cell line; [4],450 nM
same,AC50,MOLP8 cell line; [5],420 nM
same,AC50,[2]; [7],215 nM
"Cc1[nH]nc2c1-c1c(Cl)ccc3c(c(C(=O)O)n(C)c13)CCCOc1cc(cc3ccccc13)SCc1cc(nn1C)CN(C)C2 (single isomer, unassigned) [Compound 24]",Ki,[1],1.2 nM and 1.87 nM
same,AC50,MOLP8 cell line; [3],~10500 nM
same,AC50,MOLP8 cell line; [4],12000 nM
same,AC50,MOLP8 cell line; [5],11500 nM
same,AC50,[2]; [7],8160 nM
"COCCn1nc(C)c2c1CN(C)Cc1cc(n(C)n1)CSc1cc(c3ccccc3c1)OCCCc1c(C(=O)O)n(C)c3c-2c(Cl)ccc13 (single isomer, unassigned) [Compound 26]",Ki,[1],4.14 nM and 5.54 nM
same,AC50,MOLP8 cell line; [3],8290 nM
same,AC50,MOLP8 cell line; [4],7960 nM
same,AC50,MOLP8 cell line; [5],8610 nM
same,AC50,"[2]; Homo sapiens, MOLP-8, 2 h, read-out: MOLP8 Caspase-Glo AC50 (nM), MOLP8 cells, 2 hours incubation",4330 nM
"COCCn1nc2c(c1C)-c1c(Cl)ccc3c(c(C(=O)O)n(C)c13)CCCOc1cc(cc3ccccc13)SCc1cc(nn1C)CN(C)C2 (single isomer, unassigned) [Compound 27]",Ki,[1],0.03 nM and 0.06 nM
same,AC50,MOLP8 cell line; [3],100 nM
same,AC50,MOLP8 cell line; [4],100 nM
same,AC50,MOLP8 cell line; [5],90 nM
same,AC50,[2]; [7],36 nM

# From US20230021562A1, “[…] D[…]-1 INHIBITORS” (priority 2019, published 2023)
